Experimental data taken from US20140343017A1, “PYRROLE COMPOUND” (Kabushiki Kaisha Yakult Honsha, priority 2012, published 2014).

Columns and labels:
Experiment in all cases: Inhibitory effect on growth of human cancer cells (in vitro), WST-8
Format in all cases: cell-based
[1] = test system: human colorectal cancer HCT116 cells; conditions: 96 hours culture
Experimental: (§1) Each pyrrole compound of the present invention was studied for its effects on the growth of human non-small cell lung cancer A549 cells and human colorectal cancer HT-29 cells and HCT116 cells. The cells of each line were suspended in an RPMI1640 medium supplemented with 10% fetal bovine serum and inoculated at a cell density of 1000 cells/50 μL/well to a 96-well plate. After overnight culture, each compound diluted with a medium was added thereto at a concentration of 50 μL/well, and the cells were further cultured for 96 hours. After the completion of culture, WST-8 (Seikagaku Corp.) was added thereto at a concentration of 10 μL/well, and the cells were cultured at 37° C. for approximately 1 hour under 5% CO2 conditions, followed by measurement of absorbance at 450 nm.

[2] = test system: human colorectal cancer HT-29 cells; conditions: Homo sapiens, HT-29, 96 h, 96 hours culture, read-out: IC50 (nM) HT29
Experimental: as §1

[3] = test system: human non-small cell lung cancer A549 cells; conditions: 96 hours culture
Experimental: as §1

For `Cc1[nH]c(-c2nnn(CCN)n2)c(C)c1C(=O)c1cccc(Br)c1` [Compound 103, (5-(2-(2-aminoethyl)-2H-tetrazol-5-yl)-2,4-dimethyl-1H-pyrrol-3-yl)(3-bromophenyl)methanone], the IC50 ([1]; Homo sapiens, HCT-116, 96 h) was 182 nM, the IC50 [2] was 43.3 nM and the IC50 ([3]; Homo sapiens, A549, 96 h) was 87.8 nM.

With `CC(=O)OCCn1nnc(-c2[nH]c(C)c(C(=O)c3cccc(Br)c3)c2C)n1` [Compound 104, 2-(5-(4-(3-bromobenzoyl)-3,5-dimethyl-1H-pyrrol-2-yl)-2H-tetrazol-2-yl)ethyl acetate] the IC50 ([1]; Homo sapiens, HCT-116, 96 h) was 8.5 nM, the IC50 [2] was 8.5 nM and the IC50 ([3]; Homo sapiens, A549, 96 h) was 11 nM.

`Cc1[nH]c(-c2nnn(CCO)n2)c(C)c1C(=O)c1cccc(C2CC2)c1` [Compound 115, (3-cyclopropylphenyl)(5-(2-(2-hydroxyethyl)-2H-tetrazol-5-yl)-2,4-dimethyl-1H-pyrrol-3-yl)methanone] gave an IC50 ([1]; Homo sapiens, HCT-116, 96 h) of 41 nM, an IC50 [2] of 42.5 nM and an IC50 ([3]; Homo sapiens, A549, 96 h) of 49.2 nM.

`Cc1c(-c2nnn(CCO)n2)[nH]c(C=O)c1C(=O)c1cccc(Br)c1` [Compound 117, 3-(3-bromobenzoyl)-5-(2-(2-hydroxyethyl)-2H-tetrazol-5-yl)-4-methyl-1H-pyrrole-2-carboaldehyde] gave an IC50 ([1]; Homo sapiens, HCT-116, 96 h) of 118 nM, an IC50 [2] of 42.1 nM and an IC50 ([3]; Homo sapiens, A549, 96 h) of 83 nM.

`Cc1c(-c2nnn(CCO)n2)[nH]c(C(F)F)c1C(=O)c1cccc(Br)c1` [Compound 119, (3-bromophenyl)(2-(difluoromethyl)-5-(2-(2-hydroxyethyl)-2H-tetrazol-5-yl)-4-methyl-1H-pyrrol-3-yl)methanone] was tested, and the IC50 ([1]; Homo sapiens, HCT-116, 96 h) was 145 nM, the IC50 [2] was 42.6 nM and the IC50 ([3]; Homo sapiens, A549, 96 h) was 50.1 nM.

`COc1ccc(C(=O)c2c(C=O)[nH]c(-c3nnn(CCOC(C)=O)n3)c2C)cc1Br` [Compound 124, 2-(5-(4-(3-bromo-4-methoxybenzoyl)-5-formyl-3-methyl-1H-pyrrol-2-yl)-2H-tetrazol-2-yl)ethyl acetate] was tested, and the IC50 ([1]; Homo sapiens, HCT-116, 96 h) was 37.8 nM, the IC50 [2] was 30.4 nM and the IC50 ([3]; Homo sapiens, A549, 96 h) was 38.6 nM.

With `COc1ccc(C(=O)c2c(C=O)[nH]c(-c3nnn(CCO)n3)c2C)cc1Br` [Compound 125, 3-(3-bromo-4-methoxybenzoyl)-5-(2-(2-hydroxyethyl)-2H-tetrazol-5-yl)-4-methyl-1H-pyrrole-2-carboaldehyde] the IC50 ([1]; Homo sapiens, HCT-116, 96 h) was 93.2 nM, the IC50 [2] was 35.2 nM and the IC50 ([3]; Homo sapiens, A549, 96 h) was 45.8 nM.

`COc1ccc(C(=O)c2c(C(F)F)[nH]c(-c3nnn(CCOC(C)=O)n3)c2C)cc1Br` [Compound 126, 2-(5-(4-(3-bromo-4-methoxybenzoyl)-5-(difluoromethyl)-3-methyl-1H-pyrrol-2-yl)-2H-tetrazol-2-yl)ethyl acetate] showed an IC50 ([1]; Homo sapiens, HCT-116, 96 h) of 38.2 nM, an IC50 [2] of 33.1 nM and an IC50 ([3]; Homo sapiens, A549, 96 h) of 38.2 nM.

In the case of `COc1ccc(C(=O)c2c(C(F)F)[nH]c(-c3nnn(CCO)n3)c2C)cc1Br` [Compound 127, (3-bromo-4-methoxyphenyl)(2-(difluoromethyl)-5-(2-(2-hydroxyethyl)-2H-tetrazol-5-yl)-4-methyl-1H-pyrrol-3-yl)methanone], the IC50 ([1]; Homo sapiens, HCT-116, 96 h) is reported as 40.4 nM, the IC50 [2] is reported as 36.9 nM and the IC50 ([3]; Homo sapiens, A549, 96 h) is reported as 44.7 nM.

With `COc1ccc(C(=O)c2c(CO)[nH]c(-c3nnn(CCOC(C)=O)n3)c2C)cc1Br` [Compound 128, 2-(5-(4-(3-bromo-4-methoxybenzoyl)-5-(hydroxymethyl)-3-methyl-1H-pyrrol-2-yl)-2H-tetrazol-2-yl)ethyl acetate] the IC50 ([1]; Homo sapiens, HCT-116, 96 h) was 22.4 nM, the IC50 [2] was 27.4 nM and the IC50 ([3]; Homo sapiens, A549, 96 h) was 27.8 nM.

`COc1ccc(C(=O)c2c(CO)[nH]c(-c3nnn(CCO)n3)c2C)cc1Br` [Compound 129, (3-bromo-4-methoxyphenyl)(5-(2-(2-hydroxyethyl)-2H-tetrazol-5-yl)-2-(hydroxymethyl)-4-methyl-1H-pyrrol-3-yl)methanone] showed an IC50 ([1]; Homo sapiens, HCT-116, 96 h) of 41.2 nM, an IC50 [2] of 34.2 nM and an IC50 ([3]; Homo sapiens, A549, 96 h) of 46.9 nM.

For `COc1ccc(C(=O)c2c(C(C)O)[nH]c(-c3nnn(CCOC(C)=O)n3)c2C)cc1Br` (stereo not drawn) [Compound 130, 2-(5-(4-(3-bromo-4-methoxybenzoyl)-5-(1-hydroxyethyl)-3-methyl-1H-pyrrol-2-yl)-2H-tetrazol-2-yl)ethyl acetate], the IC50 ([1]; Homo sapiens, HCT-116, 96 h) was 36.9 nM, the IC50 [2] was 30.7 nM and the IC50 ([3]; Homo sapiens, A549, 96 h) was 35.5 nM.

Work on `COc1ccc(C(=O)c2c(C(C)O)[nH]c(-c3nnn(CCO)n3)c2C)cc1Br` (stereo not drawn) [Compound 131, (3-bromo-4-methoxyphenyl)(2-(1-hydroxyethyl)-5-(2-(2-hydroxyethyl)-2H-tetrazol-5-yl)-4-methyl-1H-pyrrol-3-yl)methanone] yielded an IC50 ([1]; Homo sapiens, HCT-116, 96 h) of 90.9 nM, an IC50 [2] of 34.8 nM and an IC50 ([3]; Homo sapiens, A549, 96 h) of 45.1 nM.

In the case of `CC(=O)OCCn1nnc(-c2[nH]c(C#N)c(C(=O)c3cccc(Br)c3)c2C)n1` [Compound 132, 2-(5-(4-(3-bromobenzoyl)-5-cyano-3-methyl-1H-pyrrol-2-yl)-2H-tetrazol-2-yl)ethyl acetate], the IC50 ([1]; Homo sapiens, HCT-116, 96 h) is reported as 167 nM, the IC50 [2] is reported as 179 nM and the IC50 ([3]; Homo sapiens, A549, 96 h) is reported as 248 nM.

Work on `Cc1c(-c2nnn(CCO)n2)[nH]c(C#N)c1C(=O)c1cccc(Br)c1` [Compound 133, 3-(3-bromobenzoyl)-5-(2-(2-hydroxyethyl)-2H-tetrazol-5-yl)-4-methyl-1H-pyrrole-2-carbonitrile] yielded an IC50 ([1]; Homo sapiens, HCT-116, 96 h) of 158 nM, an IC50 [2] of 192 nM and an IC50 ([3]; Homo sapiens, A549, 96 h) of 238 nM.

For `COC(=O)c1[nH]c(-c2nnn(CCO)n2)c(C)c1C(=O)c1cccc(Br)c1` [Compound 137, methyl 3-(3-bromobenzoyl)-5-(2-(2-hydroxyethyl)-2H-tetrazol-5-yl)-4-methyl-1H-pyrrole-2-carboxylate], the IC50 ([1]; Homo sapiens, HCT-116, 96 h) was 186 nM, the IC50 [2] was 156 nM and the IC50 ([3]; Homo sapiens, A549, 96 h) was 278 nM.

In the case of `COc1ccc(C(=O)c2c(C#N)[nH]c(-c3nnn(CCOC(C)=O)n3)c2C)cc1Br` [Compound 138, 2-(5-(4-(3-bromo-4-methoxybenzoyl)-5-cyano-3-methyl-1H-pyrrol-2-yl)-2H-tetrazol-2-yl)ethyl acetate], the IC50 ([1]; Homo sapiens, HCT-116, 96 h) is reported as 167 nM, the IC50 [2] is reported as 170 nM and the IC50 ([3]; Homo sapiens, A549, 96 h) is reported as 239 nM.

`COc1ccc(C(=O)c2c(C#N)[nH]c(-c3nnn(CCO)n3)c2C)cc1Br` [Compound 139, 3-(3-bromo-4-methoxybenzoyl)-5-(2-(2-hydroxyethyl)-2H-tetrazol-5-yl)-4-methyl-1H-pyrrole-2-carbonitrile] showed an IC50 ([1]; Homo sapiens, HCT-116, 96 h) of 171 nM, an IC50 [2] of 174 nM and an IC50 ([3]; Homo sapiens, A549, 96 h) of 245 nM.

Compound `CNC(=O)c1[nH]c(-c2nnn(CCO)n2)c(C)c1C(=O)c1ccc(OC)c(Br)c1` [Compound 149, 3-(3-bromo-4-methoxybenzoyl)-5-(2-(2-hydroxyethyl)-2H-tetrazol-5-yl)-N,4-dimethyl-1H-pyrrole-2-carboxamide] has an IC50 ([1]; Homo sapiens, HCT-116, 96 h) of 219 nM, an IC50 [2] of 232 nM and an IC50 ([3]; Homo sapiens, A549, 96 h) of 306 nM.

Work on `COc1ccc(C(=O)c2c(C(N)=O)[nH]c(-c3nnn(CCO)n3)c2C)cc1Br` [Compound 150, 3-(3-bromo-4-methoxybenzoyl)-5-(2-(2-hydroxyethyl)-2H-tetrazol-5-yl)-4-methyl-1H-pyrrole-2-carboxamide] yielded an IC50 ([1]; Homo sapiens, HCT-116, 96 h) of 181 nM, an IC50 [2] of 145 nM and an IC50 ([3]; Homo sapiens, A549, 96 h) of 192 nM.

Compound `Cc1[nH]c(-c2nnn(CCOC(=O)CN)n2)c(C)c1C(=O)c1cccc(Br)c1` [Compound 152, 2-(5-(4-(3-bromobenzoyl)-3,5-dimethyl-1H-pyrrol-2-yl)-2H-tetrazol-2-yl)ethyl 2-aminoacetate] has an IC50 ([1]; Homo sapiens, HCT-116, 96 h) of 7.8 nM, an IC50 [2] of 8.3 nM and an IC50 ([3]; Homo sapiens, A549, 96 h) of 10.8 nM.

For `Cc1[nH]c(-c2nnn(CCO)n2)c(C)c1C(=O)c1cccc(CO)c1` [Compound 163, (5-(2-(2-hydroxyethyl)-2H-tetrazol-5-yl)-2,4-dimethyl-1H-pyrrol-3-yl)(3-(hydroxymethyl)phenyl)methanone], the IC50 ([1]; Homo sapiens, HCT-116, 96 h) was 67.5 nM, the IC50 [2] was 73.8 nM and the IC50 ([3]; Homo sapiens, A549, 96 h) was 305 nM.

`CCn1nnc(-c2[nH]c(C)c(C(=O)c3cccc(OCCN)c3)c2C)n1` [Compound 165, (3-(2-aminoethoxy)phenyl)(5-(2-ethyl-2H-tetrazol-5-yl)-2,4-dimethyl-1H-pyrrol-3-yl)methanone] showed an IC50 [1] of 40.2 nM, an IC50 [2] of 126 nM and an IC50 ([3]; Homo sapiens, A549, 96 h) of 359 nM.

With `CCn1nnc(-c2[nH]c(C)c(C(=O)c3ccc(OCCN)c(Br)c3)c2C)n1` [Compound 167, (4-(2-aminoethoxy)-3-bromophenyl) (5-(2-ethyl-2H-tetrazol-5-yl)-2,4-dimethyl-1H-pyrrol-3-yl)methanone] the IC50 ([1]; Homo sapiens, HCT-116, 96 h) was 39.5 nM, the IC50 [2] was 31.5 nM and the IC50 [3] was 139 nM.

With `Cc1[nH]c(-c2nnn(CCO)n2)c(C)c1C(=O)c1ccc(OCCN)c(Br)c1` [Compound 168, (4-(2-aminoethoxy)-3-bromophenyl)(5-(2-(2-hydroxyethyl)-2H-tetrazol-5-yl)-2,4-dimethyl-1H-pyrrol-3-yl)methanone] the IC50 ([1]; Homo sapiens, HCT-116, 96 h) was 506 nM, the IC50 [2] was 670 nM and the IC50 ([3]; Homo sapiens, A549, 96 h) was 886 nM.

`COc1ccc(C(=O)c2c(/C=N/O)[nH]c(-c3nnn(CCOC(C)=O)n3)c2C)cc1Br` [Compound 169, (E)-2-(5-(4-(3-bromo-4-methoxybenzoyl)-5-((hydroxyimino)methyl)-3-methyl-1H-pyrrol-2-yl)-2H-tetrazol-2-yl)ethyl acetate] was tested, and the IC50 ([1]; Homo sapiens, HCT-116, 96 h) was 162 nM, the IC50 [2] was 167 nM and the IC50 ([3]; Homo sapiens, A549, 96 h) was 225 nM.

For `COc1ccc(C(=O)c2c(/C=N\O)[nH]c(-c3nnn(CCOC(C)=O)n3)c2C)cc1Br` [Compound 170, (Z)-2-(5-(4-(3-bromo-4-methoxybenzoyl)-5-((hydroxyimino)methyl)-3-methyl-1H-pyrrol-2-yl)-2H-tetrazol-2-yl)ethyl acetate], the IC50 ([1]; Homo sapiens, HCT-116, 96 h) was 133 nM, the IC50 [2] was 143 nM and the IC50 ([3]; Homo sapiens, A549, 96 h) was 197 nM.

Work on `CC(=O)OCCn1nnc(-c2[nH]c(CCl)c(C(=O)c3cccc(Br)c3)c2C)n1` [Compound 171, 2-(5-(4-(3-bromobenzoyl)-5-(chloromethyl)-3-methyl-1H-pyrrol-2-yl)-2H-tetrazol-2-yl)ethyl acetate] yielded an IC50 ([1]; Homo sapiens, HCT-116, 96 h) of 37.7 nM, an IC50 [2] of 35.7 nM and an IC50 ([3]; Homo sapiens, A549, 96 h) of 47.4 nM.
